Assays:
[1] = biological target: T1, EcG6PDH; glucose-6-phosphate dehydrogenase from Escherichia coli (Escherichia coli, UniProt P0AC53, R50A); assay: NAD(P)H formation at […] nm, Michaelis-Menten fit; format: biochemical; details: co-substrate NADP+ at 10 times its KM; 25°C
T1 construct: gene zwf; full length; N-terminal 6xHis tag cut by TEV protease (Gly-His left before Met1); plasmid pET-TEV-EcG6PDH from pETG6PDH

[2] = biological target: T2, EcG6PDH; glucose-6-phosphate dehydrogenase from Escherichia coli (Escherichia coli, UniProt P0AC53, K18A); assay: NAD(P)H formation at […] nm, Michaelis-Menten fit; format: biochemical; details: co-substrate NADP+ at 10 times its KM; 25°C
T2 construct: gene zwf; full length; N-terminal 6xHis tag cut by TEV protease (Gly-His left before Met1); plasmid pET-TEV-EcG6PDH from pETG6PDH

For `O=P(O)(O)OC[C@H]1OC(O)[C@H](O)[C@@H](O)[C@@H]1O` (some centres unmarked) [G6P], the “apparent KM” value [1] was “we determined the effect of the mutations on the apparent kinetic parameters for G6P” and the “apparent KM” value [2] was “we determined the effect of the mutations on the apparent kinetic parameters for G6P”.
